Results as given in patent US20130310306A1, “HUMAN LACTOFERRIN DERIVED PEPTIDES AND THEIR USE” (PharmaSurgics In Sweden AB, priority 2011, published 2013).

Legend:
[1] = system: TNF-α production in LPS stimulated THP-1 cells; test: Inhibition of TNF-α production in LPS stimulated THP-1 cells (ELISA); details: mean relative secretion; for TNF-α at 40 μM peptide: stimulated level without peptide = 100%, basal = 0%
S. aureus (CCUG 1800) = test: Minimal microbicidal concentration (MMC99) assay, S. aureus; assay type: cell-based; details: 2 hours; for MMC99 μM in 50% SWF: 50% heat inactivated simulated wound fluid
Description: Antimicrobial Activity was Measured as Bactericidal Effect on S. Aureus Using Minimal Microbicidal Concentration, MMC99, Assay)
S. aureus (#1800; CCUG, Gothenburg, Sweden) cultured on blood-agar plates [Columbia agar (Oxoid, Basingstoke, UK) supplemented with 5% defibrinated horse blood (National Veterinary Institute (SVA), Uppsala, Sweden)] were transferred to brain heart infusion broth (3.7% BHI; Difco, BD Diagnostics, Franklin Lakes, N.J., USA) and incubated in a shaker at 250 rpm+37° C. over night. The culture was thereafter be diluted 1:10 in fresh BHI broth and incubated for additional two hours to reach log-phase growth. The bacteria were pelleted and suspended in 1% BHI medium (BHI broth diluted 100 times in ultra-pure water) to a concentration of 10^7 bacteria/ml as estimated by measuring optical density at 600 nm. Peptides were serially diluted by two-fold steps from 160 μM to 1.25 μM in 1% BHI medium. The peptides (100 μl) were thereafter incubated with bacteria (5 μl á 10^7 bact./ml) for 2 hours at +37° C. Drops (5 μl) of the suspension were placed on blood agar plates. The blood agar plates were incubated over night at +37° C. The MMC99 values, i.e. the lowest peptide concentration needed to achieve a 99% reduction of viable bacteria, were recorded (Table 3). The concentration of the bacterial suspension used in the assay was confirmed by viable counts on blood agar plates.
S. aureus (#1800; CCUG, Gothenburg, Sweden) cultured on blood-agar plates [Columbia agar (Oxoid, Basingstoke, UK) supplemented with 5% defibrinated horse blood (National Veterinary Institute (SVA), Uppsala, Sweden)] were transferred to brain heart infusion broth (3.7% BHI; Difco, BD Diagnostics, Franklin Lakes, N.J., USA) and incubated in a shaker at 250 rpm+37° C. over night. The culture was thereafter be diluted 1:10 in fresh BHI broth and incubated for additional two hours to reach log-phase growth. The bacteria were pelleted and suspended in 1% BHI medium (BHI broth diluted 100 times in ultra-pure water) to a final concentration of 10^7 bacteria/ml as estimated by measuring optical density at 600 nm. Peptides were serially diluted by two-fold steps from 400 μM to 0.78 μM in either 1% BHI medium or in 50% heat inactivated simulated wound fluid [SWF, containing 1 part 0.1% peptone (Oxoid, Basingstoke, UK) in saline and 1 part fetal bovine serum, diluted 2 times in ultra-pure water].
The peptides (100 μl) were thereafter incubated with bacteria (5 μl á 10^7 bact./ml) for 2 hours at +37° C. Drops (5 μl) of the suspension were placed on blood agar plates. The blood agar plates were incubated over night at +37° C. The MMC99 values, i.e. the lowest peptide concentration needed to achieve a 99% reduction of viable bacteria were recorded (Table 6). The concentration of the bacterial suspension used in the assay was confirmed by viable counts on blood agar plates.
The antimicrobial effects of the peptide 265 (SEQ ID NO: 27) was analysed by MMC99 (minimal microbicidal concentration) assay against S. aureus (CCUG 1800), MRSA (CCUG 41879), P. aeruginosa (ATCC 15442), E. coli (CCUG 31246), S. pyogenes (CCUG 4207), P. acnes (CCUG 1794T), S. epidermidis (ATCC12228), K. pneumoniae (ATCC 13883), A. baumannii (ATCC 19606), and C. albicans (ATCC 64549). The peptides were purchased from Biopeptide Company (San Diego, Calif., USA) and Bachem AG (Bubendorf, Switzerland) and results are presented in Table 8A and 8B respectively.
Peptide was serially diluted in two different assay medium, 1% BHI medium (brain-heart infusion medium) or 50% heat inactivated simulated wound fluid (SWF), and thereafter incubated with the microorganisms for 2 hours. Drops of the suspension were placed on blood agar plates. The MMC99 values, i.e. the lowest peptide concentration needed to achieve a 99% reduction of viable microorganisms, were recorded. As presented in Table 8, the peptide has the ability to kill microorganisms frequently appearing in infections.

[2] = screen 1, 99% reduction of viable bacteria

## CFLWRRNMRKVRGSRRRRG [Peptide 276]
[1]; screen 2
  TNF-α at 40 μM peptide: 38.8%
  TNF-α at 4 μM peptide: 111.0%
  TNF-α at 10 μM peptide: 135.3%
S. aureus (CCUG 1800); screen 2
  MMC99 μM in 1% BHI medium: 6.25 µM
  MMC99 μM in 50% SWF: 12.5 µM

## CFQWKRAMRKVRGPPVSCIKRDS [Peptide 159]
[1]; screen 1, 6 h
  TNF-α at 40 μM peptide: 60%
S. aureus (CCUG 1800); [2]
  MMC99 μM in 1% BHI medium: 20 µM

## CFQWKRAMRKVRGSRRRRG [Peptide 155]
[1]; screen 1, 6 h
  TNF-α at 40 μM peptide: 5%
S. aureus (CCUG 1800); [2]
  MMC99 μM in 1% BHI medium: 10 µM

## CFQWQRNMRKVRGPPVSCIKR [Peptide 157]
[1]; screen 1, 6 h
  TNF-α at 40 μM peptide: 153%
S. aureus (CCUG 1800); [2]
  MMC99 μM in 1% BHI medium: 20 µM

## EATKCFQWQRNMRKVRGPPVSSIKR [Peptide 156]
[1]; screen 1, 6 h
  TNF-α at 40 μM peptide: 124%
S. aureus (CCUG 1800); [2]
  MMC99 μM in 1% BHI medium: 20 µM

## FQWKRRKRMRRGSVRRRG [Peptide 266]
[1]; screen 2
  TNF-α at 40 μM peptide: 101.1%

## FQWKRRMRKVRGSKKKKG [Peptide 257]
[1]; screen 2
  TNF-α at 40 μM peptide: 62.8%
  TNF-α at 4 μM peptide: 114.5%
  TNF-α at 10 μM peptide: 109.1%
S. aureus (CCUG 1800); screen 2
  MMC99 μM in 1% BHI medium: 6.25 µM
  MMC99 μM in 50% SWF: 200 µM

## FQWKRRMRKVRGSLRRWG [Peptide 258]
[1]; screen 2
  TNF-α at 40 μM peptide: 39.8%
  TNF-α at 4 μM peptide: 110.4%
  TNF-α at 10 μM peptide: 115.4%
S. aureus (CCUG 1800); screen 2
  MMC99 μM in 1% BHI medium: 6.25 µM
  MMC99 μM in 50% SWF: 12.5 µM

## FQWKRRMRKVRGSRRRRG [Peptide 127]
[1]; screen 1, 6 h
  TNF-α at 40 μM peptide: 9%
S. aureus (CCUG 1800); [2]
  MMC99 μM in 1% BHI medium: 5 µM

## FQWKRRMRKVRSGRRRGR [Peptide 264]
[1]; screen 2
  TNF-α at 40 μM peptide: 87.2%

## FQWQRKMRKVRGSRRRRG [Peptide 126]
[1]; screen 1, 6 h
  TNF-α at 40 μM peptide: 107%
S. aureus (CCUG 1800); [2]
  MMC99 μM in 1% BHI medium: 10 µM

## FQWQRNMRKVRGPPSRRRRG [Peptide 154]
[1]; screen 1, 6 h
  TNF-α at 40 μM peptide: 162%
S. aureus (CCUG 1800); [2]
  MMC99 μM in 1% BHI medium: 10 µM

## FQWQRNMRKVRGPSRRRRG [Peptide 153]
[1]; screen 1, 6 h
  TNF-α at 40 μM peptide: 159%
S. aureus (CCUG 1800); [2]
  MMC99 μM in 1% BHI medium: 10 µM

## FQWQRNMRKVRGSRRRRG [Peptide 116]
[1]; screen 1, 6 h
  TNF-α at 40 μM peptide: 83%
S. aureus (CCUG 1800); [2]
  MMC99 μM in 1% BHI medium: 10 µM

## FQWQRNMRKVRGSRRRRG [Peptide 150]
[1]; screen 1, 6 h
  TNF-α at 40 μM peptide: 134%
S. aureus (CCUG 1800); [2]
  MMC99 μM in 1% BHI medium: 10 µM

## FQWQRNMRKVRGSRRRRG [Peptide 152]
[1]; screen 1, 6 h
  TNF-α at 40 μM peptide: 110%
S. aureus (CCUG 1800); [2]
  MMC99 μM in 1% BHI medium: 10 µM
